Measurements published in patent publication US5449662A, “Atrial natriuretic peptide clearance inhibitors which resist degradation” (Scios Nova Inc., priority 1992, dated 1995).
Numbered stars: 1 amine (or outer) side, 2 acyl side, 3 side chain; on linkers, the order of the positions; unused ones are H or OH. Square brackets hold non-standard residues; d marks the D form. Peptide text beside a SMILES is read from it. * marks the point of attachment. X4 = O=C(NO)C(Cc1ccccc1)N(CC(=O)[*:2])[*:1]; γGlu = O=C(O)[C@H](CCC(=O)[*:2])N[*:1]; X2 = O=C(Cc1ccc(N[*:1])cc1)[*:2]; X3 = O=C(O)C(Cc1ccccc1)NCCC(=O)*; X1 = O=C(C(CS)Cc1ccccc1)*

Experiments:
Endopeptidase 24.11 = target: T1, Endopeptidase 24.11 (Rattus norvegicus, UniProt P07861); assay: Inhibition of endopeptidase 24.11 (cleavage of rANP(99-126), HPLC); format: biochemical; settings: for inhibition at 0.02 µM: 20 nM; for inhibition at 0.02 µM / inhibition at 0.1 µM / inhibition at 1 µM / inhibition at 10 µM: read-out: % Inhibition of Metabolite Formation; for inhibition at 0.1 µM: 100 nM
T1 construct: rat urine was collected and desalted on Sephadex G-25; from tissue; host or cells: rat urine, desalted on Sephadex G-25
T1 sequence (P07861 1-750): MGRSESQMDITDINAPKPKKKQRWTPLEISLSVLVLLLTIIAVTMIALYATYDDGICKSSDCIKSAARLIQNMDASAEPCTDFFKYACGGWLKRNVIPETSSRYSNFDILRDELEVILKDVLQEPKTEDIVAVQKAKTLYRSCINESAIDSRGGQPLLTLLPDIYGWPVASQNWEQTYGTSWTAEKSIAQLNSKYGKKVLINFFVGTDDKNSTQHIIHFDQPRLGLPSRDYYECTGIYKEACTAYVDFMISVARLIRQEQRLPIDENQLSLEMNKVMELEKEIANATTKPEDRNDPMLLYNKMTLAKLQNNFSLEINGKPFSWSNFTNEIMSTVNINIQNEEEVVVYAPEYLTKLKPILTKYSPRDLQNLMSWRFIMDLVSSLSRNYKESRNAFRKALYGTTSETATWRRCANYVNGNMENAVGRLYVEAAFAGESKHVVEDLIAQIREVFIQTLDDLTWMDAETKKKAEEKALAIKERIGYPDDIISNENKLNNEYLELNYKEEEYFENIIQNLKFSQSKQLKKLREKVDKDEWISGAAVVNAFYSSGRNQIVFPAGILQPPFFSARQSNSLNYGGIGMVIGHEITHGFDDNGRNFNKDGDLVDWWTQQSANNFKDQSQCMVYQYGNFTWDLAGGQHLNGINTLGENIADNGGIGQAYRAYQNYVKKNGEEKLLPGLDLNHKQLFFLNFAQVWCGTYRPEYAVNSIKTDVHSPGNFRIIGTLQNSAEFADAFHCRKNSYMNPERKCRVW
Experimental: Endopeptidase 24.11 inactivates ANP by cleavage at the Cys^105 -Phe^106 amide bond. The ability of the compounds of the invention to inhibit this degradation was assayed by a modification of the procedure of Ura, N., et al, Kidney Int (1987) 32:507-513 by substituting rANP(99-126) for bradykinin as a substrate.
Briefly, rat urine was collected and desalted on Sephadex G-25 as described by Ura (supra) and 4 ul of sample in 100 ul 0.1M Tris buffer, pH 7.2 containing aminopeptidase inhibitor bestatin (10 ug/ml), potato tuber carboxy peptidase inhibitor (10 ug/ml) and aprotinin (5,000 kalikrein inhibitory unit/ml) were incubated for 15 min at 37° C. The assay was then initiated by addition of 2-10 ug rANP(99-126) to a final volume of 0.5 ml and incubated at 10-20 min at 37° C. Termination of the reaction was accomplished by boiling, spinning and freezing.
Compounds to be tested for their ability to inhibit the endopeptidase were added to the preincubation mixture 15 min before addition of substrate.
The frozen samples, incubated with or without inhibitor, were thawed and analyzed by HPLC to determine the concentration of starting rANP(99-126) and its degradation product. HPLC analysis was conducted on Vydac C18 reverse phase HPLC column (4.6 mm ID×12.5 cm; 5 uM, 300A). A linear gradient of 15-35% acetonitrile containing 0.1% TFA was run at 1.0 ml/min on a Perkin-Elmer series 4 HPLC system. The effluent was monitored at 220 nm and the peptide peak heights measured.
The results were computed as the percent of the Cys^105 -Phe^106 cleavage metabolite peak in the test sample as compared to the peak height for this metabolite in the control.

[1] = target: T2, ANP clearance receptor on bovine aortic smooth muscle (BASM) cells (Bos taurus, UniProt P10730); assay: BASM receptor binding assay (competition with I125 labeled rANP(102-126)); settings: read-out: Ki(app)
T2 construct: endogenous in cells; host or cells: bovine aortic smooth muscle (BASM) cells
T2 sequence (P10730 42-537): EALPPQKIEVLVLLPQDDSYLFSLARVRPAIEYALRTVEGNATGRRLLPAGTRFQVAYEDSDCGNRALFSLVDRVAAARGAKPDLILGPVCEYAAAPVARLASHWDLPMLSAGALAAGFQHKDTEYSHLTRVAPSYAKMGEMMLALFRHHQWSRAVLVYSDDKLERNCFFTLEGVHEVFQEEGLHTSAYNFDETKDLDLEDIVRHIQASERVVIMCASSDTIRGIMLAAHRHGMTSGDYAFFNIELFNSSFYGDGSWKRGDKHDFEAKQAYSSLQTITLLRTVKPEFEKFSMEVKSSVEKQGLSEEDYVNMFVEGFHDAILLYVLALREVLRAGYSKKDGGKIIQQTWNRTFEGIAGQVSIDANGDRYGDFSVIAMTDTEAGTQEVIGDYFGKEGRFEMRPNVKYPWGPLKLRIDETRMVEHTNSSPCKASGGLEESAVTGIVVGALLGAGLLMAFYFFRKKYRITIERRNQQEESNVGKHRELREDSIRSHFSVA
Text: (§1) The assay systems used are adapted from those of Schenk, D. B., et al, Biochem Biophys Res Commun (1985) 127:433-442 and Scarborough, R. M., J Biol Chem (1986) 261:12960-12964. These assays measure clearance receptor binding affinity through competition with ANP using the receptors on bovine aortic smooth muscle (BASM) or bovine aortic endothelial (BAE) cells. Also employed is the receptor binding affinity assay for the clearance receptor in isolated perfused rat kidney as described by Maack, T., et al, Science (1987) 238:675-679.

[2] = target: T3, clearance receptor in isolated perfused rat kidney (Rattus norvegicus, UniProt P41740); assay: Rat kidney receptor binding assay (isolated perfused rat kidney); settings: labeled compound 4 × 10^-12 M + competitor 1 × 10^-6 M; n = 2
T3 construct: the clearance receptor in isolated perfused rat kidney; from tissue; host or cells: isolated perfused rat kidney
T3 sequence (P41740 41-535): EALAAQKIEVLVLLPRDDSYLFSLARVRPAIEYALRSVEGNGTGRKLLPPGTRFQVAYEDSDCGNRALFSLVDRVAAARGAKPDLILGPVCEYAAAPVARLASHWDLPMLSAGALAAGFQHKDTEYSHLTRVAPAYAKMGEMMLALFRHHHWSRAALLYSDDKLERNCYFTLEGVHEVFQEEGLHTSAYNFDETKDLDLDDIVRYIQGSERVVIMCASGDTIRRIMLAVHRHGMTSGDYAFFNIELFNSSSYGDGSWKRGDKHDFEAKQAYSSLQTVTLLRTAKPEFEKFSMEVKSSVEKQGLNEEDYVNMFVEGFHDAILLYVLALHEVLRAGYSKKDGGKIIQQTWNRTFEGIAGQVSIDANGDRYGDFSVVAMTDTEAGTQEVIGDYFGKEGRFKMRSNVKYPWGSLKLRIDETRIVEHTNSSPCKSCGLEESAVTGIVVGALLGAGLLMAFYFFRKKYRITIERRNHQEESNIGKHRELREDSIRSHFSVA
Text: as §1
In the rat kidney receptor binding assay, the native 28-residue labeled ANP was used: I^125 labeled rANP(99-126), with the label linked to tyrosine at 126. The results of this assay are shown in Table 2 as the ratio of bound-to-free labeled rANP(99-126) in the presence and absence of competing compound.

| Molecule | inhibition at 10 µM (Endopeptidase 24.11) [%] | Ki [1] [nM] | other results |
| --- | --- | --- | --- |
| CC(C)C[C@H](NP(=O)(O)O[C@@H]1O[C@@H](C)[C@H](O)[C@@H](O)[C@H]1O)C(=O)N[C@@H](Cc1c[nH]c2ccccc12)C(=O)O [Phosphoramidon, phosphoramidon, reference compound] | 97 |  | inhibition at 0.02 µM (Endopeptidase 24.11): 0%; inhibition at 0.1 µM (Endopeptidase 24.11): 30%; inhibition at 1 µM (Endopeptidase 24.11): 80% |
| CC[C@H](C)[C@H](NC(=O)[C@H](CCCNC(=N)N)NC(=O)[C@H](CC(=O)O)NC(=O)[C@@H](NC(=O)[C@H](CCCNC(=N)N)NC(=O)CNC(=O)[C@H](CC(=O)O)NC(=O)C(CS)Cc1ccccc1)[C@@H](C)CC)C(N)=O (some centres unmarked) [Analog 12] (X1-DGRIDRI-NH2) |  | 207 |  |
| CC[C@H](C)[C@H](NC(=O)[C@H](CCCNC(=N)N)NC(=O)[C@H](CC(=O)O)NC(=O)[C@@H](NC(=O)[C@H](CCCNC(=N)N)NC(=O)CNC(=O)CNC(=O)C(CS)Cc1ccccc1)[C@@H](C)CC)C(N)=O (stereo partly drawn) [Analog 1, MBP-G-G-R-I-D-R-I-NH2] (X1-GGRIDRI-NH2) | 92 | 19.6 | inhibition at 0.02 µM (Endopeptidase 24.11): 0%; inhibition at 0.1 µM (Endopeptidase 24.11): 23%; inhibition at 1 µM (Endopeptidase 24.11): 45%; IC50 (Endopeptidase 24.11; approximate, from Table 3, read-out: ED50 of inhibition): ~1000 nM |
| CC[C@H](C)[C@H](NC(=O)[C@H](CCCNC(=N)N)NC(=O)[C@H](CC(=O)O)NC(=O)[C@@H](NC(=O)[C@H](CCCNC(=N)N)NC(=O)CNC(=O)CCNC(Cc1ccccc1)C(=O)O)[C@@H](C)CC)C(N)=O (some centres unmarked) [Analog 427] (X3-GRIDRI-NH2) |  | 11.5 |  |
| CC[C@H](C)[C@H](NC(=O)[C@H](CCCNC(=N)N)NC(=O)[C@H](CC(=O)O)NC(=O)[C@@H](NC(=O)[C@H](CCCNC(=N)N)NC(=O)Cc1ccc(NC(=O)C(CS)Cc2ccccc2)cc1)[C@@H](C)CC)C(N)=O (stereo partly drawn) [Analog 122, MBP-4-APA--R--I--D--R--I--NH2] (X1-[X2]RIDRI-NH2) | 97 | 10.9 | inhibition at 0.02 µM (Endopeptidase 24.11): 12%; inhibition at 0.1 µM (Endopeptidase 24.11): 25%; inhibition at 1 µM (Endopeptidase 24.11): 72% |
| CC[C@H](C)[C@H](NC(=O)[C@H](CCCNC(=N)N)NC(=O)[C@H](CC(=O)O)NC(=O)[C@@H](NC(=O)[C@H](CCCNC(=N)N)NC(=O)CNC(=O)CNC(Cc1ccccc1)C(=O)O)[C@@H](C)CC)C(N)=O (some centres unmarked) [Analog 364] |  | 66.9 |  |
| CC[C@H](C)[C@H](NC(=O)[C@H](CCCNC(=N)N)NC(=O)[C@H](CC(=O)O)NC(=O)[C@@H](NC(=O)[C@H](CCCNC(=N)N)NC(=O)CNC(=O)[C@@H](CC(=O)O)NC(=O)C(CS)Cc1ccccc1)[C@@H](C)CC)C(N)=O (some centres unmarked) [Analog 23] (X1-[dD]GRIDRI-NH2) |  | 115 |  |
| O=C(O)CNC(=O)C(CS)Cc1ccccc1 (centres unmarked) [Thiorphan, thiorphan, reference compound] | 92 |  | inhibition at 0.02 µM (Endopeptidase 24.11): 12%; inhibition at 0.1 µM (Endopeptidase 24.11): 53%; inhibition at 1 µM (Endopeptidase 24.11): 67% |
| rANP(99-126): native 28-residue rat ANP, unlabeled competitor in the rat kidney binding assay [reference compound] |  |  | Ratio of Bound/Free (125I)rANP(99-126), Whole Kidney [2]: 0.56 |
| CC[C@H](C)[C@H](NC(=O)[C@H](CCCNC(=N)N)NC(=O)[C@H](CC(=O)O)NC(=O)[C@@H](NC(=O)[C@H](CCCNC(=N)N)NC(=O)CC[C@H](NC(=O)C(CS)Cc1ccccc1)C(=O)O)[C@@H](C)CC)C(N)=O (some centres unmarked) [Analog 78] ({X1-γGlu}-RIDRI-NH2) |  | 202 |  |
| CC[C@H](C)[C@H](NC(=O)[C@H](CCCNC(=N)N)NC(=O)[C@H](CC(=O)O)NC(=O)[C@@H](NC(=O)[C@H](CCCNC(=N)N)NC(=O)CNC(=O)CNC(=O)[C@H](Cc1ccccc1)NC(Cc1ccccc1)C(=O)O)[C@@H](C)CC)C(N)=O (some centres unmarked) [Analog 436] |  | 27.3 |  |
| CC[C@H](C)[C@H](NC(=O)[C@H](CCCNC(=N)N)NC(=O)[C@H](CC(=O)O)NC(=O)[C@@H](NC(=O)[C@H](CCCNC(=N)N)NC(=O)CNC(=O)CNC(Cc1ccccc1)C(=O)NO)[C@@H](C)CC)C(N)=O (some centres unmarked) [Analog 702] (H-[X4]GRIDRI-NH2) |  | 4.6 |  |
| CC[C@H](C)[C@H](NC(=O)[C@H](CCCNC(=N)N)NC(=O)[C@H](CC(=O)O)NC(=O)[C@@H](NC(=O)[C@H](CCCNC(=N)N)NC(=O)CNC(=O)[C@H](CC(=O)O)NC(=O)[C@H](Cc1ccccc1)NC(Cc1ccccc1)C(=O)O)[C@@H](C)CC)C(N)=O (some centres unmarked) [Analog 463] |  | 225 |  |
| F--[N]--F--G--G--R--I--D--R--I--NH2 [Analog 436] |  |  | Ratio of Bound/Free (125I)rANP(99-126), Whole Kidney [2]: 1.31 |
| CC[C@H](C)[C@H](NC(=O)[C@H](CCCNC(=N)N)NC(=O)[C@H](CC(=O)O)NC(=O)[C@@H](NC(=O)[C@H](CCCNC(=N)N)NC(=O)CC[C@H](NC(=O)[C@H](Cc1ccccc1)NC(CCc1ccccc1)C(=O)O)C(=O)O)[C@@H](C)CC)C(N)=O (some centres unmarked) [Analog 544] |  | 58.2 |  |
| CC[C@H](C)[C@H](NC(=O)[C@H](CCCNC(=N)N)NC(=O)[C@H](CC(=O)O)NC(=O)[C@@H](NC(=O)[C@H](CCCNC(=N)N)NC(=O)Cc1ccc(NC(=O)[C@H](Cc2ccccc2)NC(Cc2ccccc2)C(=O)O)cc1)[C@@H](C)CC)C(N)=O (stereo partly drawn) [Analog 445, F[N]F-4-APA-R-I-D-R-I-NH2] | 0 | 6.5 |  |
